Data as given in patent US8952025B2, “Multifunctional radical quenchers and their uses” (Arizona Board of Regents, A Body Corporate of the State of …, priority 2010, dated 2015).

Assays:
cultured FRDA cells = experiment: Cytoprotection of cultured FRDA cells depleted of glutathione; assay type: cell-based; conditions: pretreated then depleted of glutathione, read-out: Viable Cells (%)
Source text: The cells were pretreated with the compounds and then depleted of glutathione. The cell viability is expressed as percentage of total number of cells.

[1] = test system: NADH oxidase, bovine heart mitochondrial complex (I, III, IV); experiment: NADH oxidase inhibition assay, submitochondrial particles; assay type: biochemical; conditions: for NADH oxidase activity (%): percentage of control; for IC50: beef heart SMP
Experimental: Beef heart mitochondria were obtained by a large-scale procedure. Inverted submitochondrial particles (SMP) were prepared by the method of Matsuno-Yagi and Hatefi (J. Biol. Chem. 260 (1985), p. 14424), and stored in a buffer containing 0.25 M sucrose and 10 mM Tris-HCl (pH 7.4) at −80° C. Inhibitory effects of compounds on bovine heart mitochondrial complex (I, III, IV) were evaluated. Maximal dimethyl sulfoxide concentration never exceeded 2% and had no influence on the control enzymatic activity. Beef heart SMP were diluted to 0.5 mg/mL. The enzymatic activities were assayed at 30° C. and monitored spectrophotometrically with a Beckman Coulter DU-530 (340 nm, c=6.22 mM^−1 cm^−1). NADH oxidase activity was determined in a reaction medium (2.5 mL) containing 50 mM Hepes, pH 7.5, containing 5 mM MgCl2. The final mitochondrial protein concentration was 30 μg. After the pre-equilibration of SMP with inhibitor for 5 min, the initial rates were calculated from the linear portion of the traces.
The activity is expressed as percentage of control.

CEM cells = experiment: Reactive oxygen species (ROS) assay, DCFH-DA, DEM-treated cells; assay type: cell-based, human; conditions: compound 1 μM, 5 mM DEM
Source text: Cellular ROS production can be monitored using 2′,7′-dichlorodihydrofluorescein diacetate (DCFH-DA) (LeBel et al. (1992) Chem. Res. Toxicol. 5, 227-231) (Molecular Probes, Eugene, Oreg., USA), a membrane permeable and oxidant-sensitive fluorescent dye. DCFH-DA is a non-fluorescent derivative of fluorescein that emits fluorescence after being oxidized by hydrogen peroxide and other ROS. The emitted fluorescence is directly proportional to the concentration of hydrogen peroxide. DCFH-DA is nonionic and nonpolar and is easily taken up by cells. Once inside the cell, DCFH-DA is hydrolyzed by cellular esterases to non-fluorescent DCFH which traps the dye in the cell. In the presence of ROS including hydrogen peroxide, DCFH is oxidized to the highly fluorescent compound dichlorofluorescein (DCF). The intracellular DCF fluorescence is used as an index of cellular ROS production.
Cellular oxidative stress was induced by pharmacological depletion of glutathione (GSH) using the chemical diethylmaleate (DEM). ROS production was assessed by monitoring DCF fluorescence. Leukemic CEM cells (ATCC®, catalogue number CRL-2264) were cultured in RPMI (GIBCO, Grand island, N.Y., USA) with 10% FCS, 2 mM glutamine (HyClone, South Logan, Utah, USA) and 1% penicillin-streptomycin mix antibiotics (Cellgro, Manassan, Va., USA) supplements. Cells were maintained in the log phase at a concentration of between 1×10^5 and 1×10^6 cells/mL. CEM cells (1×10^6 cell/mL) were plated (1 mL) in twelve well plate and treated with the invention compounds (final concentration 1 and 5 μM), and incubated for two hours at 37° C., 5% CO2. The compounds tested were prepared by first making stock solutions (2.5 mM) in dimethylsulfoxide (DMSO). Cells were treated with 5 mM DEM for 30 minutes and collected by centrifugation at 300×g for 3 min and then washed twice with Hanks' Balanced Salt Solution (HSSB) buffer (Sigma, St. Louis, Mo. USA). Cells were resuspended in HSSB buffer+10 mM glucose and incubated at 37° C. in the dark for 20 min with 10 μM DCFH-DA. Cells were collected by centrifugation at 300×g for 3 min and then washed twice with HSSB buffer. The samples were analyzed immediately by flow cytometry (Becton-Dickinson FACS Caliber), (Cell Quest software, BD Biosciences) using 488 nm excitation laser and FL1-H channel 538 nm emission filter. In each analysis, 10,000 events were recorded after cell debris were electronically gated out. Results obtained were verified by repeating experiments N=3 independent experiments. Authentic hydrogen peroxide was used as a positive control.

| Structure (SMILES) | NADH oxidase activity (%) ([1]; 1 μM) | NADH oxidase activity (%) ([1]; 2.5 μM) | NADH oxidase activity (%) ([1]; 5 μM) | NADH oxidase activity (%) ([1]; 10 μM) | other results |
| --- | --- | --- | --- | --- | --- |
| CCCCCCCCCCc1nc(N(C)C)nc(C)c1O [drawing 128] | – | – | – | – | viability at 0.1 µM (cultured FRDA cells): 54.5 ± 3.3%; viability at 0.5 µM (cultured FRDA cells): 84 ± 3.6%; viability at 2.5 µM (cultured FRDA cells): 76.3 ± 5% |
| CCCCCCCCCCCCCCCCc1nc(N(C)C)nc(C)c1O [drawing 129] | – | – | – | – | viability at 0.1 µM (cultured FRDA cells): 61.3 ± 2.9%; viability at 0.5 µM (cultured FRDA cells): 84.4 ± 3.4%; viability at 2.5 µM (cultured FRDA cells): 88 ± 1% |
| CCCCCCCCCCc1nc(N(C)C)nc(OC)c1O [drawing 130] | – | – | – | – | viability at 0.1 µM (cultured FRDA cells): 40.3 ± 1.5%; viability at 0.5 µM (cultured FRDA cells): 83.7 ± 1.5%; viability at 2.5 µM (cultured FRDA cells): 82.7 ± 2.5% |
| CCCCCCCCCCCCCCCCc1nc(N(C)C)nc(OC)c1O [drawing 131] | – | – | – | – | viability at 0.1 µM (cultured FRDA cells): 43.7 ± 3.1%; viability at 0.5 µM (cultured FRDA cells): 66.3 ± 1.5%; viability at 2.5 µM (cultured FRDA cells): 80.5 ± 5% |
| Cc1nc2c(c(CC[C@](C)(O)CCC[C@H](C)CCC[C@H](C)CCCC(C)C)c1O)CCN2C [drawing 136] | 50% | 50% | – | 15% | – |
| Cc1cc(N(C)C)nc(CCCCCCCCCCO)c1O [drawing 137] | 90% | 58% | 38% | 20% | – |
| COc1c(O)c(C)c(CCCCCCCCCCO)c(O)c1OC [idebenol, reference compound] | – | – | – | – | protection against ROS production (DCF fluorescence) (CEM cells): less effective at this concentration |

The next lines start with results.

| NADH oxidase activity (%) ([1]; 1 μM) | NADH oxidase activity (%) ([1]; 2.5 μM) | NADH oxidase activity (%) ([1]; 5 μM) | NADH oxidase activity (%) ([1]; 10 μM) | Structure (SMILES) | other results |
| --- | --- | --- | --- | --- | --- |
| 85% | – | – | – | CCCCCc1nc(N(C)C)nc(C)c1O [drawing 132] | – |
| 40% | – | – | – | CCCCCCCCCCc1nc(N(C)C)nc(C)c1O [drawing 133] | IC50 [1]: 0.829 µM |
| 50% | 42% | 22% | 15% | Cc1nc(N(C)C)nc(CCCCCCCCCCO)c1O [drawing 134] | IC50 [1]: 2.23 µM |
| 62.5% | 40% | 50% | 25% | COc1nc(N(C)C)nc(CCCCCCCCCCO)c1O [drawing 138] | – |
| 62% | 62% | 62% | 62% | CCCCCCCCCCCCCCCCc1nc(N(C)C)nc(C)c1O [drawing 139] | – |
| 90% | 70% | 70% | 70% | CCCCCCCCCCCCCCCCc1nc(N(C)C)nc(OC)c1O [drawing 140] | – |
| 38% | – | 38% | 10% | CCCCCCCCCCc1nc(N(C)C)nc(OC)c1O [drawing 141] | – |
